Source: patent publication US8741906B2 (priority 2011, dated 2014)

How the values were obtained:
[1] = biological target: T1, human CB2 receptors (Homo sapiens, UniProt P34972); assay: functional cAMP assay, human CB2; assay type: cell-based; conditions: CHO cells expressing human CB2, cAMP; read-out: human CB2 EC50
T1 construct: expressed in transfected cells; host or cells: CHO cells
Experimental: (§1) CHO cells expressing human CB1 or CB2 receptors are seeded 17-24 hours prior to the experiment 50.000 cells per well in a black 96 well plate with flat clear bottom (Corning Costar #3904) in DMEM (Invitrogen No. 31331), 1×HT supplement, with 10% fetal calf serum and incubated at 5% CO2 and 37° C. in a humidified incubator. The growth medium was exchanged with Krebs Ringer Bicarbonate buffer with 1 mM IBMX and incubated at 30° C. for 30 min. Compounds were added to a final assay volume of 100 μl and incubated for 30 min at 30° C. Using the cAMP-Nano-TRF detection kit the assay (Roche Diagnostics) was stopped by the addition of 50 μl lysis reagent (Tris, NaCl, 1.5% Triton X100, 2.5% NP40, 10% NaN3) and 50 μl detection solutions (20 μM mAb Alexa700-cAMP 1:1, and 48 μM Ruthenium-2-AHA-cAMP) and shaken for 2 h at room temperature. The time-resolved energy transfer is measured by a TRF reader (Evotec Technologies GmbH), equipped with a ND:YAG laser as excitation source. The plate is measured twice with the excitation at 355 nm and at the emission with a delay of 100 ns and a gate of 100 ns, total exposure time 10 s at 730 (bandwidth 30 nm) or 645 nm (bandwidth 75 nm), respectively. The FRET signal is calculated as follows: FRET=T730-Alexa730-P(T645-B645) with P=Ru730-B730/Ru645-B645, where T730 is the test well measured at 730 nM, T645 is the test well measured at 645 nm, B730 and B645 are the buffer controls at 730 nm and 645 nm, respectively. cAMP content is determined from the function of a standard curve spanning from 10 μM to 0.13 nM cAMP.
(§2) EC50 values were determined using Activity Base analysis (ID Business Solution, Limited). The EC50 values for a wide range of cannabinoid agonists generated from this assay were in agreement with the values published in the scientific literature.

[2] = biological target: T2, human CB1 receptors (Homo sapiens, UniProt P21554); assay: functional cAMP assay, human CB1; assay type: cell-based; conditions: CHO cells expressing human CB1, cAMP; read-out: human CB1 EC50
T2 construct: expressed in transfected cells; host or cells: CHO cells
Experimental: as §1, §2

T2 sequence (P21554 whole entry): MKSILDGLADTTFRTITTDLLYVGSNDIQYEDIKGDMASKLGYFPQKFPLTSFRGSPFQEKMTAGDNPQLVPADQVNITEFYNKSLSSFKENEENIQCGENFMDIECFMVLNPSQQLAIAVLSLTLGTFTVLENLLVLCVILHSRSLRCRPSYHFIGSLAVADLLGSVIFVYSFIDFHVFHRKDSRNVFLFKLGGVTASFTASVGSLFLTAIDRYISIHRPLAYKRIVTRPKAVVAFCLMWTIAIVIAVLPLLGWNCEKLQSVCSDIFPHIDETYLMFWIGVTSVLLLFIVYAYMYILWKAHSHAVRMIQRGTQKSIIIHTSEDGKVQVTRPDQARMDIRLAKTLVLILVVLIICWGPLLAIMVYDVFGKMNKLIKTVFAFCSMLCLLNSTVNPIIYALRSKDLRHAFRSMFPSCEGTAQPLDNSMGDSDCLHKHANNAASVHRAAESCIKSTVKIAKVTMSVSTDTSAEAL
T1 sequence (P34972 whole entry): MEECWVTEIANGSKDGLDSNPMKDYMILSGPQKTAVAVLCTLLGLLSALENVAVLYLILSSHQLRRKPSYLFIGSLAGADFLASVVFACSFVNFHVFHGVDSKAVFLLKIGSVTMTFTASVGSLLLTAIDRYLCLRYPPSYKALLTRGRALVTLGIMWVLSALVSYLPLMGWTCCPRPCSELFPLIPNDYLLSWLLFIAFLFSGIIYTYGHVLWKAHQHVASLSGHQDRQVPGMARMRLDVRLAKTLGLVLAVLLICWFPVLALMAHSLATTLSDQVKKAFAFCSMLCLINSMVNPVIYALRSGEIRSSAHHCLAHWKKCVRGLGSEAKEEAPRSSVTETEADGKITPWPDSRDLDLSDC

Structure (SMILES)	EC50 [1]	EC50 [2]
CC(C)(C)c1nc(N2C[C@@H](O)[C@@H](O)C2)c2nnn(Cc3ccccc3Cl)c2n1 [Example 56, (3S,4R)-1-[5-tert-Butyl-3-(2-chloro-benzyl)-3H-[1,2,3]triazolo[4,5-d]pyrimidin-7-yl]-pyrrolidine-3,4-diol]	0.0165 µM	> 10 µM
COc1ccc(Cn2nnc3c(N4CCOCC4)nc(C(C)(C)C)nc32)cc1 [Example 57, 5-tert-Butyl-3-(4-methoxy-benzyl)-7-morpholin-4-yl-3H-[1,2,3]triazolo[4,5-d]pyrimidine]	0.0123 µM	> 10 µM
CC(C)(C)c1nc(N2CCOCC2)c2nn[nH]c2n1 [Example 58]	0.337 µM	> 10 µM
CC(C)(C)c1nc(N2CCOCC2)c2nnn(Cc3ccc(F)cc3Cl)c2n1 [Example 59, 5-tert-Butyl-3-(2-chloro-4-fluoro-benzyl)-7-morpholin-4-yl-3H-[1,2,3]triazolo[4,5-d]pyrimidine]	0.0023 µM	> 10 µM
COc1ccc(Cn2nnc3c(N4CCC(F)(F)C4)nc(C(C)(C)C)nc32)cc1 [Example 60, 5-tert-Butyl-7-(3,3-difluoro-pyrrolidin-1-yl)-3-(4-methoxy-benzyl)-3H-[1,2,3]triazolo[4,5-d]pyrimidine]	0.0025 µM	> 10 µM
CCn1nnc2c(N3CCC(F)(F)C3)nc(C(C)(C)C)nc21 [Example 61, 5-tert-butyl-7-(3,3-difluoropyrrolidin-1-yl)-3-ethyl-3H-[1,2,3]triazolo[4,5-d]pyrimidine]	0.0132 µM	> 10 µM
COCCn1nnc2c(N3CCC(F)(F)C3)nc(C(C)(C)C)nc21 [Example 62, 5-tert-Butyl-7-(3,3-difluoro-pyrrolidin-1-yl)-3-(2-methoxy-ethyl)-3H-[1,2,3]triazolo[4,5-d]pyrimidine]	0.0033 µM	> 10 µM
CC(C)(C)c1nc(N2CCC(F)(F)C2)c2nnn(CCO)c2n1 [Example 63, 2-[5-tert-Butyl-7-(3,3-difluoro-pyrrolidin-1-yl)-[1,2,3]triazolo[4,5-d]pyrimidin-3-yl]-ethanol]	0.0182 µM	> 10 µM
CC(C)(C)c1nc(N2CCC(F)(F)C2)c2nnn(CC3CCCCC3)c2n1 [Example 64, 5-tert-Butyl-3-cyclohexylmethyl-7-(3,3-difluoro-pyrrolidin-1-yl)-3H-[1,2,3]triazolo[4,5-d]pyrimidine]	0.0023 µM	> 10 µM
CC(C)(C)c1nc(N2CCC(F)(F)C2)c2nnn(Cc3cccc(Cl)c3)c2n1 [Example 65, 5-tert-Butyl-3-(3-chloro-benzyl)-7-(3,3-difluoro-pyrrolidin-1-yl)-3H-[1,2,3]triazolo[4,5-d]pyrimidine]	0.0009 µM	0.22 µM
CC(C)(C)c1nc(N2CCC(F)(F)C2)c2nnn(Cc3ccc(Cl)cc3)c2n1 [Example 66, 5-tert-Butyl-3-(4-chloro-benzyl)-7-(3,3-difluoro-pyrrolidin-1-yl)-3H-[1,2,3]triazolo[4,5-d]pyrimidine]	0.002 µM	> 10 µM
CC(C)(C)c1nc(N2CCC(F)(F)C2)c2nnn(Cc3cccc(Cl)c3Cl)c2n1 [Example 67, 5-tert-Butyl-3-(2,3-dichloro-benzyl)-7-(3,3-difluoro-pyrrolidin-1-yl)-3H-[1,2,3]triazolo[4,5-d]pyrimidine]	0.0002 µM	0.163 µM
CC(C)(C)c1nc(N2CCC(F)(F)C2)c2nnn(Cc3ccc(Cl)cc3Cl)c2n1 [Example 68, 5-tert-Butyl-3-(2,4-dichloro-benzyl)-7-(3,3-difluoro-pyrrolidin-1-yl)-3H-[1,2,3]triazolo[4,5-d]pyrimidine]	0.0007 µM	> 10 µM
CC(C)(C)c1nc(N2CCC(F)(F)C2)c2nnn(Cc3cc(Cl)ccc3Cl)c2n1 [Example 69, 5-tert-Butyl-3-(2,5-dichloro-benzyl)-7-(3,3-difluoro-pyrrolidin-1-yl)-3H-[1,2,3]triazolo[4,5-d]pyrimidine]	0.0003 µM	0.276 µM
CC(C)(C)c1nc(N2CCC(F)(F)C2)c2nnn(Cc3c(Cl)cccc3Cl)c2n1 [Example 70, 5-tert-Butyl-3-(2,6-dichloro-benzyl)-7-(3,3-difluoro-pyrrolidin-1-yl)-3H-[1,2,3]triazolo[4,5-d]pyrimidine]	0.0001 µM	0.0508 µM
CC(C)(C)c1nc(N2CCC(F)(F)C2)c2nnn(Cc3ccc(F)cc3Cl)c2n1 [Example 71, 5-tert-Butyl-3-(2-chloro-4-fluoro-benzyl)-7-(3,3-difluoro-pyrrolidin-1-yl)-3H-[1,2,3]triazolo[4,5-d]pyrimidine]	0.0004 µM	> 10 µM
CC(C)(C)c1nc(N2CCC(F)(F)C2)c2nnn(Cc3c(F)cccc3Cl)c2n1 [Example 72, 5-tert-Butyl-3-(2-chloro-6-fluoro-benzyl)-7-(3,3-difluoro-pyrrolidin-1-yl)-3H-[1,2,3]triazolo[4,5-d]pyrimidine]	0.0001 µM	0.041 µM
CC(C)(C)c1nc(N2CCC(F)(F)C2)c2nnn(Cc3ccccn3)c2n1 [Example 73, 5-tert-Butyl-7-(3,3-difluoro-pyrrolidin-1-yl)-3-pyridin-2-ylmethyl-3H-[1,2,3]triazolo[4,5-d]pyrimidine]	0.0001 µM	0.0609 µM
CC(C)(C)c1nc(N2CCC(F)(F)C2)c2nnn(Cc3cccnc3)c2n1 [Example 74, 5-tert-Butyl-7-(3,3-difluoro-pyrrolidin-1-yl)-3-pyridin-3-ylmethyl-3H-[1,2,3]triazolo[4,5-d]pyrimidine]	0.0001 µM	0.0559 µM
CC(C)(C)c1nc(N2CCC(F)(F)C2)c2nnn(Cc3ccncc3)c2n1 [Example 75, 5-tert-Butyl-7-(3,3-difluoro-pyrrolidin-1-yl)-3-pyridin-4-ylmethyl-3H-[1,2,3]triazolo[4,5-d]pyrimidine]	0.0002 µM	0.0978 µM
CC(C)(C)c1nc(N2CCC(F)(F)C2)c2nnn(CC(F)(F)F)c2n1 [Example 76, 5-tert-Butyl-7-(3,3-difluoro-pyrrolidin-1-yl)-3-(2,2,2-trifluoro-ethyl)-3H-[1,2,3]triazolo[4,5-d]pyrimidine]	0.0023 µM	> 10 µM
CC(C)(C)c1nc(N2CCC(F)(F)C2)c2nnn(Cc3cc(F)c(F)cc3Cl)c2n1 [Example 77, 5-tert-Butyl-3-(2-chloro-4,5-difluoro-benzyl)-7-(3,3-difluoro-pyrrolidin-1-yl)-3H-[1,2,3]triazolo[4,5-d]pyrimidine]	0.0008 µM	> 10 µM
CC(C)(C)c1nc(N2CCC(F)(F)C2)c2nnn(Cc3c(F)ccc(F)c3Cl)c2n1 [Example 78, 5-tert-Butyl-3-(2-chloro-3,6-difluoro-benzyl)-7-(3,3-difluoro-pyrrolidin-1-yl)-3H-[1,2,3]triazolo[4,5-d]pyrimidine]	0.0001 µM	0.143 µM
CC(C)(C)c1nc(N2CCC(F)(F)C2)c2nnn(Cc3ccccc3Br)c2n1 [Example 79, 3-(2-Bromo-benzyl)-5-tert-butyl-7-(3,3-difluoro-pyrrolidin-1-yl)-3H-[1,2,3]triazolo[4,5-d]pyrimidine]	0.0001 µM	0.0823 µM
CC(C)(C)c1nc(N2CCC(F)(F)C2)c2nnn(Cc3ccccc3C(F)(F)F)c2n1 [Example 80, 5-tert-Butyl-7-(3,3-difluoro-pyrrolidin-1-yl)-3-(2-trifluoromethyl-benzyl)-3H-[1,2,3]triazolo[4,5-d]pyrimidine]	0.0003 µM	0.0693 µM
